Test results: patent US20250230138A1, “COMPOUNDS HAVING A T-STRUCTURE FORMED BY AT LEAST FOUR CYCLES FOR USE IN THE TREATMENT OF CANCER AND OTHER INDICATIONS” (TheRas, Inc., priority 2022, published 2025)
Where two headings read alike, the source gives them in different places.

What was measured:
[1] = target: Cys242 in human PIK3CA (157-299) (Homo sapiens (Human), UniProt P42336); test: Covalent modification assay using MALDI-TOF MS; format: biochemical; conditions: 4 h reaction time point
In short: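 PIK3CA (157-299) at 3.33 μM or 1 μM in 20 mM HEPES, 150 mM NaCl, 2 mM MgCl2, pH 7.3 was incubated with compound (from 10 mM DMSO stocks) in the dark at room temperature for 15 min, 30 min, 2 h or 4 h. Linear-mode MALDI-TOF peak heights gave percent modification.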

pAKT in BT474 cells = test: Cell-based pAKT HTRF assay in BT474 cells; conditions: BT474 cells, 4 hr incubation, read-out: pAKT inhibition IC50 in BT474 cells
In short: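 pAKT was measured by HTRF after a 4 hr compound exposure in BT474 cells (DMEM, 10% FBS, 0.25% DMSO), using 9 concentrations from 3 μM in 3-fold steps. Cell lysates were incubated with the Eu cryptate/d2 antibody pair at room temperature for 4 to 24 h. The plate was then read at 320 nm excitation and 615 nm emission.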

[2] = 3.33 μM protein target, 1:7.5 protein to compound ratio (compounds 1-852)
[3] = 1 μM protein target, 1:5 protein to compound ratio (compounds 853-1279)
[4] = Homo sapiens, BT-474, Compounds 10-999

Sequence of Cys242 in human PIK3CA (157-299) (P42336 157-299): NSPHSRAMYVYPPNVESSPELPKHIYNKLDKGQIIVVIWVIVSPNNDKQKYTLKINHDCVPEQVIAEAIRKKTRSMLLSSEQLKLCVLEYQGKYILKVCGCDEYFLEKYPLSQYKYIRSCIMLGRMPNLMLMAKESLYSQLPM

Structure (SMILES) | % of modification [1, 2] | IC50 (pAKT in BT474 cells; Compounds 10-999) [nM] | % of modification [1, 3] | further results
C=CC(=O)N1CCc2nc(-c3nc(-c4ccc5c(c4)CNC5=O)c4ccsc4c3-c3c(F)cc(F)cc3OCCOC)sc2C1 [Compound 364] | A (percent of modification of PIK3CA protein ≥75%) | < 100 |  | 
C=CC(=O)N1CCn2nc(-c3nc(-c4ccc5c(c4)CCNC5)c4ccsc4c3-c3ccc(F)cc3OCC3CCNC(=O)C3)cc2C1 (stereo not shown) [Compound 261] | A (percent of modification of PIK3CA protein ≥75%) | < 100 |  | 
C=CC(=O)N1CCn2nc(-c3nc(-c4ccc5c(c4)CCN(C)C5)c4ccsc4c3-c3c(F)cc(F)cc3OCCO)cc2C1C (stereo not shown) [Compound 537] | A (percent of modification of PIK3CA protein ≥75%) | < 100 |  | 
C=CC(=O)N1Cc2cc(-c3nc(-c4cnn(C)c4)c4ccsc4c3-c3c(F)cc(F)cc3OCCO)nn2[C@@H](C)C1 [Compound 566] | D (percent of modification <25%) | 100 to 1000 |  | 
C=C(F)C(=O)N1CCn2nc(-c3nc(-c4ccc5c(c4)CCN(C)C5)c4ccsc4c3-c3ccc(F)cc3OCC(F)F)cc2C1 [Compound 325] | B (50%<percent of modification <75%) | 100 to 1000 |  | 
C=CC(=O)N1CCn2nc(-c3nc(-c4ccc(C5CN(C)C5)cc4)c4ccsc4c3-c3c(F)cc(F)cc3OCCOC)cc2C1C (stereo not shown) [Compound 1057] |  |  | A (percent of modification of PIK3CA protein ≥75%) | IC50 (pAKT in BT474 cells; Compounds 1000-1279): < 100 nM
C=CC(=O)N1CCn2nc(-c3nc(-c4ccc5c(c4)CN(C)C(=O)C5)c4ccsc4c3-c3c(F)cc(F)cc3OCCOC)cc2C1C (stereo not shown) [Compound 983] |  | < 100 | A (percent of modification of PIK3CA protein ≥75%) | 
C=CC(=O)N1CCn2nc(-c3nc(N4CCN(C(C)C)CC4)c4ccsc4c3-c3ccc(F)cc3OC(C)C)cc2C1 [Compound 208] | A (percent of modification of PIK3CA protein ≥75%) | < 100 |  | 
C=CC(=O)N1CCn2nc(-c3nc(-c4cnc(C)nc4)c4ccsc4c3-c3c(F)cc(F)cc3OCCOC)cc2C1C (stereo not shown) [Compound 792] | A (percent of modification of PIK3CA protein ≥75%) | < 100 |  | 
C=CC(=O)N1CCn2nc(-c3nc(-c4cnc5c(c4)CN(C)CC5)c4ccsc4c3-c3ccc(F)cc3OC(C)C)cc2C1 [Compound 283] | A (percent of modification of PIK3CA protein ≥75%) | < 100 |  | 
C=CC(=O)N1CCn2cc(-c3nc(-c4ccc5c(c4)CCNC5)c4ccsc4c3-c3ccc(F)cc3OCCOC)nc2C1 [Compound 101, 1-[2-[7-[4-fluoro-2-(2-methoxyethoxy)phenyl]-4-(1,2,3,4-tetrahydroisoquinolin-6-yl)thieno[3,2-c]pyridin-6-yl]-6,8-dihydro-5H-imidazo[1,2-a]pyrazin-7-yl]prop-2-en-1-one] | A (percent of modification of PIK3CA protein ≥75%) |  |  | IC50 (pAKT in BT474 cells; [4]): < 100 nM
C=CC(=O)N1Cc2cc(-c3nc(C45CC(CNC(C)=O)(C4)C5)c4ccsc4c3-c3c(F)cc(F)cc3OCCOC)nn2CC1C (stereo not shown) [Compound 1246] |  |  | B (50%<percent of modification <75%) | IC50 (pAKT in BT474 cells; Compounds 1000-1279): 100 to 1000 nM
C=CC(=O)N1CCc2cc(-c3nc(-c4ccc5c(cnn5C)c4)c4ccsc4c3-c3c(F)cc(F)cc3OCCO)nn2CC1 [Compound 1207, (S)-1-(2-(7-(2,4-difluoro-6-(2-hydroxyethoxy)phenyl)-4-(1-methyl-1H-indazol-5-yl)thieno[3,2-c]pyridin-6-yl)-4,5,7,8-tetrahydro-6H-pyrazolo[1,5-d][1,4]diazepin-6-yl)prop-2-en-1-one] |  |  | A (percent of modification of PIK3CA protein ≥75%) | IC50 (pAKT in BT474 cells; Homo sapiens, BT-474, Compounds 1000-1279): < 100 nM
C=CC(=O)N1CCn2nc(-c3nc(N4CC5(CCN(C)C5)C4)c4ccsc4c3-c3c(F)cc(F)cc3OCCOC)cc2C1C (stereo not shown) [Compound 1054] |  |  | C (25%≤percent of modification <50%) | IC50 (pAKT in BT474 cells; Compounds 1000-1279): 100 to 1000 nM
C=CC(=O)N1CCn2nc(-c3nc(-c4ccc5cnn(C)c5c4)c4ccsc4c3-c3c(F)cc(F)cc3OCCO)cc2[C@H]1C [Compound 776] | A (percent of modification of PIK3CA protein ≥75%) | < 100 |  | 
C=CC(=O)N1Cc2cc(-c3nc(-c4cnn(CC(F)F)c4)c4ccsc4c3-c3c(F)cc(F)cc3OCCOC)nn2C[C@H]1C [Compound 727] | A (percent of modification of PIK3CA protein ≥75%) | < 100 |  | 
C=CC(=O)N1CCn2nc(-c3nc(-c4cnc5c(c4)CN(C)CC5)c4ccsc4c3-c3ccc(F)cc3OCCOC)cc2C1 [Compound 253] | A (percent of modification of PIK3CA protein ≥75%) | < 100 |  | 
C=CC(=O)N1CCn2nc(-c3nc(-c4ccc(OCCN(C)C)nc4)c4ccsc4c3-c3c(F)cc(F)cc3OCCOC)cc2C1C (stereo not shown) [Compound 1065] |  |  | A (percent of modification of PIK3CA protein ≥75%) | IC50 (pAKT in BT474 cells; Compounds 1000-1279): < 100 nM

Structure (SMILES) | % of modification [1, 2] | IC50 (pAKT in BT474 cells; Compounds 10-999) [nM] | % of modification [1, 3] | further results
C=CC(=O)N1CCn2nc(-c3nc(-c4cnc5c(c4)CN(C)C5=O)c4ccsc4c3-c3c(F)cc(F)cc3OCCO)cc2C1C (stereo not shown) [Compound 924] |  | < 100 | A (percent of modification of PIK3CA protein ≥75%) | 
C=CC(=O)N1Cc2cc(-c3nc(-c4cnn(C)c4)c4ccsc4c3-c3c(F)cc(F)cc3OC)nn2C[C@H]1C [Compound 820] | A (percent of modification of PIK3CA protein ≥75%) | < 100 |  | 
C=CC(=O)N1CCn2nc(-c3nc(-c4ccc5c(c4)CCN(C)C5)c4ccsc4c3-c3c(F)cc(F)cc3OCCOC)cc2[C@@H]1C [Compound 544] | A (percent of modification of PIK3CA protein ≥75%) | < 100 |  | 
C=CC(=O)N1CCC(c2cc(-c3nc(-c4ccc5c(c4)CCNC5)c4ccsc4c3-c3ccc(F)cc3OCCOC)c[nH]c2=O)C1 (stereo not shown) [Compound 70, 5-[7-[4-fluoro-2-(2-methoxyethoxy)phenyl]-4-(1,2,3,4-tetrahydroisoquinolin-6-yl)thieno[3,2-c]pyridin-6-yl]-3-(1-prop-2-enoylpyrrolidin-3-yl)-1H-pyridin-2-one] | A (percent of modification of PIK3CA protein ≥75%) |  |  | IC50 (pAKT in BT474 cells; [4]): 100 to 1000 nM
C=CC(=O)N1CCn2nc(-c3nc(-c4ccc(C5CCCN5C)cc4)c4ccsc4c3-c3c(F)cc(F)cc3OCCOC)cc2C1C (stereo not shown) [Compound 1237] |  |  | A (percent of modification of PIK3CA protein ≥75%) | IC50 (pAKT in BT474 cells; Compounds 1000-1279): < 100 nM
C=CC(=O)N1Cc2cc(-c3nc(-c4ccc5nn(C)cc5c4)c4ccsc4c3-c3c(F)cc(F)cc3OC(C)C)nn2CC1C (stereo not shown) [Compound 530] | A (percent of modification of PIK3CA protein ≥75%) | < 100 |  | 
C=CC(=O)N1CCn2nc(-c3nc(-c4ccc5c(c4)CCNC5=O)c4ccsc4c3-c3c(F)cc(F)cc3OC[C@@H](C)O)cc2[C@H]1C [Compound 894] |  | < 100 | A (percent of modification of PIK3CA protein ≥75%) | 
C=CC(=O)N1CCn2nc(-c3nc(-c4ccc(CC(=O)NC)cc4)c4ccsc4c3-c3c(F)cc(F)cc3OC)cc2C1C (stereo not shown) [Compound 1188] |  |  | A (percent of modification of PIK3CA protein ≥75%) | IC50 (pAKT in BT474 cells; Compounds 1000-1279): < 100 nM
C=C(F)C(=O)N1CCn2nc(-c3nc(-c4ccc5c(c4)CNC5=O)c4ccsc4c3-c3c(F)cc(F)cc3OC(C)C)cc2C1 [Compound 341] | B (50%<percent of modification <75%) | < 100 |  | 
C=CC(=O)N1CCn2nc(-c3nc(-c4cn(C)cn4)c4ccsc4c3-c3c(F)cc(F)cc3OCCO)cc2C1C (stereo not shown) [Compound 786] | A (percent of modification of PIK3CA protein ≥75%) | < 100 |  | 
C=C(F)C(=O)N1CCn2nc(-c3nc(-c4ccc5c(c4)CNC5=O)c4ccsc4c3-c3c(F)cc(F)cc3OCC)cc2C1 [Compound 321] | B (50%<percent of modification <75%) | < 100 |  | 
C=CC(=O)N1CC(n2cc(-c3nc(-c4ccc5c(c4)CCNC5)c4c(c3-c3ccc(F)cc3OCCOC)CCC4)cn2)C1 [Compound 109] | A (percent of modification of PIK3CA protein ≥75%) | 100 to 1000 |  | 
C=CC(=O)N1Cc2cc(-c3nc(-c4cnc5oc(C)nc5c4)c4ccsc4c3-c3c(F)cc(F)cc3OCCOC)nn2C[C@H]1C [Compound 825] | A (percent of modification of PIK3CA protein ≥75%) | < 100 |  | 
C=CC(=O)N1Cc2cc(-c3nc(-c4ccc5cn(C)nc5c4)c4ccsc4c3-c3c(F)cc(F)cc3OCCO)nn2C(C)C1 (stereo not shown) [Compound 783] | A (percent of modification of PIK3CA protein ≥75%) | < 100 |  | 
C=CC(=O)N1CC(n2cc(-c3nc(-c4cnn(CF)c4)c4ccsc4c3-c3ccc(F)cc3OCCOC)cn2)C1 [Compound 236] | A (percent of modification of PIK3CA protein ≥75%) | 100 to 1000 |  | 
COC/C=C/C(=O)N1CCn2nc(-c3nc(-c4ccc5c(c4)CCNC5=O)c4ccsc4c3-c3ccc(F)cc3OC(C)C)cc2C1 [Compound 277] | A (percent of modification of PIK3CA protein ≥75%) | 100 to 1000 |  | 
C=CC(=O)N1CCn2nc(-c3nc(-c4ccc5c(c4)CNC(=O)C5)c4ccsc4c3-c3c(F)cc(F)cc3OCCOC)cc2C1C (stereo not shown) [Compound 931] |  | < 100 | A (percent of modification of PIK3CA protein ≥75%) | 
